Tests used:
Assay in all cases: drug sensitivity score (DSS) (DSS (unitless, 0-50 scale)); higher = more sensitive (stronger viability inhibition); extreme values may be limits of the assay
Settings in all cases: 72 h; culture: 2D
FM-MEL-6 = tested on: FM-MEL-6
In short: (§1)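 A 527-compound oncology library was screened in 384-well plates against melanoma cell lines and patient-derived melanoma cultures grown in 2D, the cultures at 1000–1500 cells per well. Each compound, in DMSO or water, was applied at five concentrations over a 10,000-fold range and incubated for 72 h at 37 °C before CellTiter-Glo luminescence readout of viability. A drug sensitivity score, a modified area-under-curve measure, was calculated from curves fitted in the in-house Breeze software.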

Bowes = tested on: Bowes
In short: as §1

SK-MEL-2 = tested on: SK-MEL-2
In short: as §1

SK-MEL-28 = tested on: SK-MEL-28
In short: as §1

WM852 = tested on: WM852
In short: as §1

FM-MEL-2 = tested on: FM-MEL-2
In short: as §1

WM165 = tested on: WM165
In short: as §1

FM-MEL-3 = tested on: FM-MEL-3
In short: as §1

Row | SMILES | drug sensitivity score (FM-MEL-6) | drug sensitivity score (Bowes) | drug sensitivity score (SK-MEL-2) | drug sensitivity score (SK-MEL-28) | drug sensitivity score (WM852) | drug sensitivity score (FM-MEL-2) | drug sensitivity score (WM165) | drug sensitivity score (FM-MEL-3)
1 | CN[C@@H](C)C(=O)N[C@H](C(=O)N1CCC[C@H]1c1nc(C(=O)c2ccc(F)cc2)cs1)C1CCCCC1 [NVP-LCL161] | 3.9 | 3 | 0.2 | 0.9 | 2.4 | 14.9 | 0 | 4.5
2 | C=C(c1ccc(C(=O)O)cc1)c1cc2c(cc1C)C(C)(C)CCC2(C)C [Bexarotene] | 0.4 | 0 | 0 | 2.3 | 0 | 1.3 | 0 | 2.9
3 | COCC[n+]1c2c(n(Cc3cnccn3)c1C)C(=O)c1ccccc1C2=O [Sepantronium bromide] | 22.3 | 34.6 | 36.2 | 34.4 | 35.2 | 21.9 | 43.2 | 41
4 | C[C@@H](Oc1cc(-c2cnn(C3CCNCC3)c2)cnc1N)c1c(Cl)ccc(F)c1Cl [Crizotinib] | 0 | 0 | 0 | 0 | 0 | 0 | 0 | 0
5 | CC(C)[C@H]1C(=O)N[C@@H](CCCNC(=N)N)C(=O)NCC(=O)N[C@@H](CC(=O)O)C(=O)N[C@H](Cc2ccccc2)C(=O)N1C [Cilengitide] | 1 | 0 | 0 | 2 | 2.5 | 0.7 | 0 | 0
6 | O=C(NC[C@H](O)CN1CCc2ccccc2C1)c1cc(NC2COC2)ncn1 | 0.5 | 4.7 | 0 | 0.3 | 0 | 0.4 | 0 | 1.4
7 | N#CC[C@H](C1CCCC1)n1cc(-c2ncnc3[nH]ccc23)cn1 [Ruxolitinib] | 0 | 0.1 | 0 | 0 | 0.1 | 0 | 0 | 1.4
8 | Cn1c(Nc2ccc(C(F)(F)F)cc2)nc2cc(Oc3ccnc(-c4ncc(C(F)(F)F)[nH]4)c3)ccc21 [NVP-RAF265] | 2 | 0.1 | 2.6 | 2.7 | 0 | 5.5 | 8.2 | 9.2
9 | CCN(CC)CCNC(=O)c1c(C)[nH]c(/C=C2\C(=O)Nc3ccc(-c4csc(-c5ccccc5)n4)cc32)c1C [Amcasertib] | 8.8 | 0.2 | 0 | 1.9 | 8.2 | 7.4 | 4.5 | 4.1
10 | CC(=O)c1c(C)c2cnc(Nc3ccc(N4CCNCC4)cn3)nc2n(C2CCCC2)c1=O [Palbociclib] | 4.2 | 4.6 | 0.7 | 6.3 | 3.1 | 3.8 | 5.8 | 2.3
11 | COc1cc(N2CCC(N3CCN(C)CC3)CC2)ccc1Nc1ncnc(Nc2ccccc2S(=O)(=O)C(C)C)n1 [ASP3026] | 4.4 | 4.8 | 2.7 | 2 | 5.2 | 2.4 | 5.5 | 2.6
12 | COc1cc(N2CCN(C)CC2)ccc1Nc1nccc(-c2cn(C)c3cnccc23)n1 [AZ191] | 0 | 3.4 | 0 | 0 | 1.9 | 2.4 | 2.7 | 0.6
13 | Cc1cc(Nc2cc(N3CCN(C)CC3)nc(/C=C/c3ccccc3)n2)n[nH]1 [ENMD-2076] | 6.4 | 11.1 | 8.9 | 7.9 | 7.5 | 7.6 | 12.6 | 7.8
14 | CC[C@@H]1C(=O)OC[C@@H]1Cc1cncn1C [Pilocarpine] | 0 | 0 | 0 | 0 | 0 | 0 | 0 | 1.5
15 | O=C(NCc1ccncc1)C12CC3CC(C1)CC(c1ccc(Cl)cc1)(C3)C2 | 1.2 | 5.2 | 2 | 2.6 | 4.3 | 2 | 6.1 | 7.6
16 | C[C@@H](Oc1ccc2[nH]nc(/C=C/c3cnn(CCO)c3)c2c1)c1c(Cl)cncc1Cl | 2 | 6 | 0.3 | 1.3 | 3.2 | 0 | 4.3 | 2.1
17 | CNCc1ccc(-c2[nH]c3cc(F)cc4c3c2CCNC4=O)cc1 [Rucaparib] | 0.7 | 0.6 | 0 | 0 | 0 | 0.8 | 3.8 | 0.5
18 | N#Cc1ccc2[nH]c(O)c(-c3ccc(CN4CCOCC4)cn3)c2c1 [AZD-1080] | 0 | 0 | 0 | 0 | 0.6 | 0 | 2.2 | 0
19 | CCn1c(-c2nonc2N)nc2cnc(Oc3cccc(NC(=O)c4ccc(OCCN5CCOCC5)cc4)c3)cc21 | 0.3 | 0 | 0 | 1.1 | 4.6 | 2.6 | 5.2 | 4.3
20 | O=C(O)C(=O)O.[NH-][C@@H]1CCCC[C@H]1[NH-].[Pt+2] [Oxaliplatin] | 11.7 | 5.8 | 4.3 | 7.3 | 3.5 | 4.7 | 14.5 | 3.2
21 | C[C@H](Nc1ncnc2nc[nH]c12)c1cc2cccc(Cl)c2c(=O)n1-c1ccccc1 [Duvelisib] | 0 | 0 | 0 | 1.3 | 0 | 2.3 | 0 | 0
